Test results as given in patent US20050054620A1, “Paricalcitol as a chemotherapeutic agent” (priority 2003, published 2005).
Entries after “also recorded” stand apart in the source; their conditions may differ.

Key:
[1] = system: HT-29 human colon cancer tumors; assay: HT-29 tumors growing in nude mice; format: in vivo; conditions: 100 ng/mouse intraperitoneally 3 days a week, vs diluant control
Protocol: HT-29 cells were bilaterally injected subcutaneously into nude mice, forming two tumors per mouse. The mice were divided randomly into control and experimental groups. […] In FIG. 5A, tumor volumes were measured every week. The mean volume±SD of 10 tumors in each group is shown. […] In FIG. 5B, After 4 weeks of therapy, tumors were removed from each group and weighed. […] For the mouse studies, BNX nu/nu nude mice at 8 weeks of age were purchased from Harlan Sprangue Dawley, Inc. (Indianapolis, Ind.) and their care was in accord with the guidelines of Cedars-Sinai Research Institute. They were maintained in pathogen-free conditions with irradiated chow. […] The mice were blindly randomized to the experimental and control groups. Treatment was started on the day after the injection of […] cells and continued for 6 weeks. […] Tumor sizes were measured every week and calculated by the formula: A (length)×B (width)×C (height)×0.5236. […] All mice were euthanized at the end of the study, and the tumors were fixed in 10% neutral buffered formalin and embedded in paraffin for histological analysis. The data were analyzed by Student's t test.

24-hydroxylase [2] = molecular target: T1, 24-hydroxylase (Homo sapiens, UniProt Q07973); assay: 24-hydroxylase activity by level of 24.25(OH)2D3 in HL-60 cells; format: cell-based; set-up: endogenous in cells; host or cells: HL-60; conditions: paricalcitol 0.01 μM, arsenic trioxide 0.8 μM, 3 days
T1 sequence (Q07973 36-514): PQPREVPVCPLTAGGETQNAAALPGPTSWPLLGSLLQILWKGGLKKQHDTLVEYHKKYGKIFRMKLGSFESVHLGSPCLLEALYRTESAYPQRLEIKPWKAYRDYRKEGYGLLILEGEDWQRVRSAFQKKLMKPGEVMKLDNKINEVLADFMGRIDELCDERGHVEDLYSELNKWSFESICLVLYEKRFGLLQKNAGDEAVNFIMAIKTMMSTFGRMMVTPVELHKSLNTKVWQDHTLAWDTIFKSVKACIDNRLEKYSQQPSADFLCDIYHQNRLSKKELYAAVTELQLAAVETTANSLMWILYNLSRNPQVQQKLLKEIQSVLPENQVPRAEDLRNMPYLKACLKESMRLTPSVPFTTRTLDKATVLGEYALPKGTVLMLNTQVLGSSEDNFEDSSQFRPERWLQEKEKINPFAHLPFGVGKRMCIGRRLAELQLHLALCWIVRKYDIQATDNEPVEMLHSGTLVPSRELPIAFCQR
Protocol: (§1) HL-60 (A) and NB-4 (B) myeloid leukemia cell lines were treated with paricalcitol (0.01 μM for HL-60, 0.1 μM for NB-4) and/or arsenic trioxide (0.8 μM for HL-60, 0.6 μM for NB-4) for 3 days. Control cells were treated with vehicle alone. The levels of 24.25(OH)2D3 were measured by HPLC analysis.
(§2) The possibility that the arsenic trioxide inactivates the mitchondrial enzyme, 24-hydroxylase leading to an activation of the response of the cells to vitamin D was tested. The activity of 24-hydroxylase was examined by measuring its metabolite, 24.25(OH)2D3 by TLC analysis in leukemia cells. HL-60 and NB-4 myeloid leukemia cell lines were treated with paricalcitol (0.01 μM for HL-60, 0.1 μM for NB-4) and/or arsenic trioxide (0.8 μM for HL-60, 0.6 μM for NB-4) for 3 days. Control cells were treated with vehicle alone. Then the levels of 24.25(OH)2D3 were measured by TLC analysis. Paricalcitol alone increased the levels of 24.25(OH)2D3 in HL-60 and NB-4, while arsenic trioxide alone decreased its level compared to control cells (FIG. 11). […] The decrease of the levels of 24-hydroxylase by arsenic trioxide may explain the enhanced activity of paricalcitol by arsenic trioxide in leukemia cells.

NB-4 cells = assay: CD14 expression by flow cytometry; format: cell-based, human; conditions: paricalcitol 0.1 μM, arsenic trioxide 0.6 μM, 3 days
HL-60 cells = assay: NBT reduction (monocytic differentiation); format: cell-based, human; conditions: paricalcitol 0.01 μM, arsenic trioxide 0.8 μM, 3 days
24-hydroxylase [3] = molecular target: T1, 24-hydroxylase; assay: 24-hydroxylase activity by level of 24.25(OH)2D3 in NB-4 cells; format: cell-based; set-up: endogenous in cells; conditions: paricalcitol 0.1 μM, arsenic trioxide 0.6 μM, 3 days
Protocol: as §1, §2

wild type U937 cells = assay: CD14 expression by flow cytometry; format: cell-based, human; conditions: paricalcitol 0.01 μM, arsenic trioxide 0.4 μM
Text: To examine the association between the presence of the fusion protein and the effect of the combination treatment, an engineered U937 monocytic leukemia cell line (PR9) that has stable integration of the PML-RARa cDNA under the control of the Zn^2+-inducible murine metallothionein 1 promoter was used. Also used were U937 cells transfected with the MT vector (B41) as a control.

[4] = system: NB-4 myeloid leukemia cells; assay: MTT assay; format: cell-based, human; conditions: 4 days exposure

Compound: C[C@H](/C=C/[C@H](C)C(C)(C)O)[C@H]1CC[C@H]2/C(=C/C=C3C[C@@H](O)C[C@H](O)C3)CCC[C@]12C [paricalcitol, 19-nor-1,25, (OH)2D3]
- mean tumor weights ([1]; after 4 weeks, p=0.0004): significantly suppressed
- growth of colon cancer tumors (tumor volumes) ([1]; p=0.03): significantly suppressed
- levels of 24.25(OH)2D3 (24-hydroxylase [2]): increased
- CD14 expression (NB-4 cells): did not induced CD14 expression
- monocytic differentiation by NBT reduction (HL-60 cells): increased
- levels of 24.25(OH)2D3 (24-hydroxylase [3]): increased
- CD14 expressing cells (wild type U937 cells): increased CD14 expressing monoicytic cells
- antiproliferative effect by MTT assay [4]: suppressed the cell growth in a dose-dependent manner; also recorded: sensitive

Compound: arsenic trioxide
- levels of 24.25(OH)2D3 (24-hydroxylase [2]): decreased
- CD14 expression (NB-4 cells): did not induced CD14 expression
- monocytic differentiation by NBT reduction (HL-60 cells): little effect on differentiation
- levels of 24.25(OH)2D3 (24-hydroxylase [3]): decreased
- CD14 expressing cells (wild type U937 cells): did not induce CD14 expression
- antiproliferative effect by MTT assay [4]: suppressed the cell growth in a dose-dependent manner
